# Laboratory results: patent US10351522B2, “Sulfonamide derivative and pharmaceutically acceptable acid addition salt thereof” (UNIVERSITY OF TSUKUBA, priority 2015, dated 2019)
# Legend:
# human OX2R = biological target: T1, human OX2R (Homo sapiens, UniProt O43614); test: Agonist activity against OX2R: intracellular calcium (Fura-2AM, FDSS7000) in CHOOX2R cells; format: cell-based; conditions: relative to orexin-A as full agonist (100%)
# T1 construct: expressed in transfected cells; host or cells: CHO (Chinese hamster ovary) cells, line CHOOX2R, co-expressing NFAT-luciferase
# T1 sequence (O43614 1-444): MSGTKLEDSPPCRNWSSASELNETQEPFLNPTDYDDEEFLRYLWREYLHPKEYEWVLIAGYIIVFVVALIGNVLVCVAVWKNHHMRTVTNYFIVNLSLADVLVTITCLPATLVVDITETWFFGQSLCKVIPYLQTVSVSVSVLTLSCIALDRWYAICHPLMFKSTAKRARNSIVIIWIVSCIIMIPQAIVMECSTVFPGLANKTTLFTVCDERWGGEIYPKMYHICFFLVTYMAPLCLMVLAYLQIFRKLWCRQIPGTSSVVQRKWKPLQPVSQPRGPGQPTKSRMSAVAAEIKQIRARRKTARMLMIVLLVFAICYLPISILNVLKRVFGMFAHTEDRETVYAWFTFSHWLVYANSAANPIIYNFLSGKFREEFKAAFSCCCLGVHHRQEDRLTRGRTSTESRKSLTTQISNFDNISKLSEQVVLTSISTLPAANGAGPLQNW
# Protocol: (§1) Evaluation of Agonist Activity Against OX1R and OX2R
# (§2) NAFT-luciferase gene and human OX1R gene were constitutively expressed in CHO cell, which is a cell line derived from Chinese hamster ovary to establish a cell line (CHOOX1R) and NAFT-luciferase gene and human OX2R gene were constitutively expressed in CHO cell to establish a cell line (CHOOX2R). The respective cells were seeded in a 96-well Multiplate at 10,000 cells/well and cultured in a 5% FBS (Thermo Scientific)-added DMEM medium (Sigma-Aldrich) for 48 hr. The medium was removed, an assay buffer (20 mM HEPES (Sigma-Aldrich), Hanks' balanced salt solution (Gibco), 0.1% BSA (Sigma-Aldrich), 2.5 mM probenecid acid (Wako Pure Chemical Industries, Ltd.)) (100 μL) containing 5 μM Fura-2AM (Cayman Chemical) was added, and the cells were incubated for 60 min. The buffer containing Fura-2AM was removed, and an assay buffer (75 μL) was added. An assay buffer (25 μL) containing a test compound was added thereto to start the reaction. Changes in the intracellular calcium ion concentration due to the reaction were measured by measuring the fluorescence intensity ratio by dual wavelength excitation at 340 and 380 nm, by using FDSS7000 (Hamamatsu Photonics K.K.). The test compound was dissolved in DMSO to 10 mM, and diluted with the assay buffer to a final concentration of 10^−7M to 10^−5M (final concentration of DMSO 1%).
# (§3) (As used herein, Response in Table 21 to Table 27 is a value obtained by dividing the agonist activity value, when the test compound is evaluated with orexin-A as a full-agonist (maximum value of agonist activity: 100%), at 10 μM, 1.0 μM, 0.1 μM by the agonist activity value of orexin-A.)
# human OX1R = biological target: T2, human OX1R (Homo sapiens, UniProt O43613); test: Agonist activity against OX1R: intracellular calcium (Fura-2AM, FDSS7000) in CHOOX1R cells; format: cell-based; conditions: relative to orexin-A as full agonist (100%)
# T2 construct: expressed in transfected cells; host or cells: CHO (Chinese hamster ovary) cells, line CHOOX1R, co-expressing NFAT-luciferase
# T2 sequence (O43613 1-425): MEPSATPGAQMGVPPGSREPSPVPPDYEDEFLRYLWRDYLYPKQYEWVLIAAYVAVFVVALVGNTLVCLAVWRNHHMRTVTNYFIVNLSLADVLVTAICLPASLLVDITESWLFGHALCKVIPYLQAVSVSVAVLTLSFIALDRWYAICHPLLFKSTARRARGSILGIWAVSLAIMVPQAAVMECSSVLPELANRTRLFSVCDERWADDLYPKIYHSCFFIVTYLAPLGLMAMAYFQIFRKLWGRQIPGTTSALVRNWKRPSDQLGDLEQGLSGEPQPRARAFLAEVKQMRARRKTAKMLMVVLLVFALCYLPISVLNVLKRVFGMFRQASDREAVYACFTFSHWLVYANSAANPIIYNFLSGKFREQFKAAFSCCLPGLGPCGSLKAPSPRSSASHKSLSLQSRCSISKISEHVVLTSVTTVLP
# Protocol: as §1, §2, §3
SMILES,Response (%) OX2R (human OX2R; 0.1 μM test compound) [%],Response (%) OX2R (human OX2R; 1.0 μM test compound) [%],Response (%) OX2R (human OX2R; 10 μM test compound) [%],Response (%) OX1R (human OX1R; 0.1 μM test compound) [%],Response (%) OX1R (human OX1R; 1.0 μM test compound) [%],Response (%) OX1R (human OX1R; 10 μM test compound) [%],Response (%) OX2R (human OX2R; test compound 0.1 μM) [%],Response (%) OX2R (human OX2R; test compound 1.0 μM) [%],Response (%) OX2R (human OX2R; test compound 10 μM) [%],"Emax at 0.1 µM (human OX1R; test compound 0.1 μM, read-out: Response (%) OX1R) [%]","Emax at 1 µM (human OX1R; test compound 1.0 μM, read-out: Response (%) OX1R) [%]","Emax at 10 µM (human OX1R; test compound 10 μM, read-out: Response (%) OX1R) [%]",Response (%) OX1R (human OX1R; test compound 0.1 μM) [%],Response (%) OX1R (human OX1R; test compound 1.0 μM) [%],Response (%) OX1R (human OX1R; test compound 10 μM) [%]
COc1ccc(-c2cccc(C(=O)N(C)C)c2)cc1S(=O)(=O)Nc1cccc(NC(=O)Nc2ccccc2[N+](=O)[O-])c1 [Example 46],74,101,115,<5,<5,8,–,–,–,–,–,–,–,–,–
COc1ccc(-c2cccc(C(=O)N(C)C)c2)cc1S(=O)(=O)Nc1cccc(NC(=O)Nc2cc(OC)c(OC)c(OC)c2)c1 [Example 54],91,71,61,<5,<5,10,–,–,–,–,–,–,–,–,–
"CNc1cccc(NS(=O)(=O)c2cc(-c3cccc(C(=O)N(C)C)c3)ccc2OC)c1 [Example 95, 4′-methoxy-N,N-dimethyl-3′-(N-(3-(methylamino)phenyl)sulfamoyl)-[1,1′-biphenyl]-3-carboxamide]",–,–,–,–,–,–,<5,11,68,< 5,< 5,< 5,–,–,–
Cc1ccc(-c2cccc(C(=O)N(C)C)c2)cc1S(=O)(=O)Nc1cccc(NC(=O)Nc2cccc(N(C)C)c2)c1 [Example 117],–,–,–,–,–,–,<5,16,44,–,–,–,<5,<5,<5
COc1cccc(Nc2cccc(NS(=O)(=O)c3cc(-c4cccc(C(=O)N(C)C)c4)ccc3OC)c2)c1 [Example 32],13,79,88,<5,<5,14,–,–,–,–,–,–,–,–,–
COc1ccc(-c2cccc(C(=O)N(C)C)c2)cc1S(=O)(=O)Nc1cccc(N2CCCN(c3ccccc3N(C)C)C2=O)c1 [Example 133],–,–,–,–,–,–,107,81,72,–,–,–,25,86,84
COc1ccc(-c2cccc(C(=O)N(C)C)c2)cc1S(=O)(=O)Nc1cccc(NC(=O)Nc2ccc([N+](=O)[O-])cc2)c1 [Example 61],24,105,99,<5,<5,7,–,–,–,–,–,–,–,–,–
COc1ccc(-c2cccc(C(=O)N(C)C)c2)cc1S(=O)(=O)Nc1cccc(NC(=O)OC(C)(C)C)c1 [Example 74],15,13,64,6,7,7,–,–,–,–,–,–,–,–,–
COc1ccc(-c2cccc(C(=O)N(C)C)c2)cc1S(=O)(=O)Nc1cccc(N2CCCN(c3cccc(N(C)C)c3)C2=O)c1 [Example 134],–,–,–,–,–,–,101,76,75,–,–,–,9,13,84
COc1ccc(-c2cccc(C(=O)N(C)C)c2)cc1S(=O)(=O)Nc1cccc(N2CCN(c3cccc(N(C)C)c3)C2=O)c1 [Example 130],–,–,–,–,–,–,64,99,106,–,–,–,<5,<5,6
COc1ccc(C(=O)NCCNC(=O)OC(C)(C)C)cc1S(=O)(=O)Nc1cccc(NC(=O)Nc2cccc(N(C)C)c2)c1 [Example 105],–,–,–,–,–,–,9,32,92,–,–,–,8,7,8
COc1ccc(-c2cccc(C(=O)N(C)C)c2)cc1S(=O)(=O)Nc1cccc(NC(=O)c2ccccc2Br)c1 [Example 2],<5,26,74,13,11,32,–,–,–,–,–,–,–,–,–
COc1ccc(-c2cccc(C(=O)N(C)C)c2)cc1S(=O)(=O)Nc1cccc(NC(=O)OCc2ccccc2)c1 [Example 73],25,49,11,6,6,<5,–,–,–,–,–,–,–,–,–
COc1ccc(-c2cccc(C(=O)N(C)C)c2)cc1S(=O)(=O)Nc1cccc(NC(=O)c2cccc(Br)c2)c1 [Example 3],<5,6,23,14,9,12,–,–,–,–,–,–,–,–,–
CCN(Cc1cccnc1)C(=O)c1ccc(OC)c(S(=O)(=O)Nc2cccc(NC(=O)Nc3ccc(N(C)C)cc3)c2)c1 [Example 111],–,–,–,–,–,–,32,88,100,–,–,–,<5,<5,<5
COc1ccc(-c2cccc(C(=O)N(C)C)c2)cc1S(=O)(=O)Nc1cccc(N)c1 [Example 99],–,–,–,–,–,–,19,14,76,–,–,–,8,8,9
COc1ccc(-c2cccc(C(=O)N(C)C)c2)cc1S(=O)(=O)Nc1cccc(NCc2cccc(C)c2)c1 [Example 25],21,88,97,<5,<5,32,–,–,–,–,–,–,–,–,–
